{"source": "patent US20150306081A1", "about": "“Chemotherapy for Drug-Resistant Cancer Cells” (THE UNIVERSITY OF SYDNEY, priority 2012, published 2015)", "key": {"Pgp": {"target": "Pgp (Homo sapiens, UniProt P08183)", "sequence (P08183 whole entry)": "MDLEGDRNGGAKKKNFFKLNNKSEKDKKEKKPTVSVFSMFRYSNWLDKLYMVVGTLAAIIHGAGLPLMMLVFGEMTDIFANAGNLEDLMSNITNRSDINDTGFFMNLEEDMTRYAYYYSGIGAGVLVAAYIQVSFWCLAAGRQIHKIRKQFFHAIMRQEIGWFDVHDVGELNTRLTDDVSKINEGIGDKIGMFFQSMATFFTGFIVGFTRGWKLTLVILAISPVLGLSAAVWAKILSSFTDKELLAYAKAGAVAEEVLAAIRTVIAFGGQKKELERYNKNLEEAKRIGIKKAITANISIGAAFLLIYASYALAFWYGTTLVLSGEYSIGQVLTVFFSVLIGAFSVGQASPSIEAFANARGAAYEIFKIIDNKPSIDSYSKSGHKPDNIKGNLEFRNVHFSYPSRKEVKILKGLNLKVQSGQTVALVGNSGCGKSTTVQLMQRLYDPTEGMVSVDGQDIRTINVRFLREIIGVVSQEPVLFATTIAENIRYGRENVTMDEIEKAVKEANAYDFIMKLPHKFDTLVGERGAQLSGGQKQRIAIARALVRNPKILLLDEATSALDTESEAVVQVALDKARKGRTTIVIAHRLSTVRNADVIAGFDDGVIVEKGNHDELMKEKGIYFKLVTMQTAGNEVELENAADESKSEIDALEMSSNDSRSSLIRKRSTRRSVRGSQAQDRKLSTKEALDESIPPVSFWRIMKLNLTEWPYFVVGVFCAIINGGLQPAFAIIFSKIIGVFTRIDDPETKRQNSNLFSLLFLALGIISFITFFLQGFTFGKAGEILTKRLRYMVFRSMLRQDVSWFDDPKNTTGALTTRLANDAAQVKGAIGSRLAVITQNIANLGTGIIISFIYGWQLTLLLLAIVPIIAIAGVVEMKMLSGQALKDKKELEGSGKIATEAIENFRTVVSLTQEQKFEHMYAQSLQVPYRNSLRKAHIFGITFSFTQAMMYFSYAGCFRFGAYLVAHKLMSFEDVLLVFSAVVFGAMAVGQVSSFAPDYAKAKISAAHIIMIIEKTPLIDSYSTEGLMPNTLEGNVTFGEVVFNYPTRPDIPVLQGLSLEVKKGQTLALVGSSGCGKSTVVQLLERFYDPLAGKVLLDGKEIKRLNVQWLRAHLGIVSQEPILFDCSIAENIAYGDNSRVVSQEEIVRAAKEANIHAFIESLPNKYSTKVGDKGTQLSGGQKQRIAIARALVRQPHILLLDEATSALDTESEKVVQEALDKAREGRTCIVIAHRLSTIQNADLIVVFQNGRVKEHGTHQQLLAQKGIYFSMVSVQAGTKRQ", "experiment": "Rhodamine 123 accumulation assay, KBV1 cells", "assay_type": "cell-based", "conditions": "0.1 μM or above", "procedure": "Cells were then harvested and resuspended in ice-cold PBS and kept on ice until flow cytometric analysis (see below).\n(§1) The dyes, Rh123 and acridine orange were detected with the FACS Canto flow cytometer (BD Biosciences) and 10,000 events were acquired for every sample. Data analysis was performed using FlowJo software, version 7.5.5 (Tree Star Inc., Ashland, OR)."}, "[1]": {"tested_on": "Pgp expressing 2008/P200A cells", "experiment": "MTT proliferation assay, 2008/P200A cells", "assay_type": "cell-based", "procedure": "The 2008 ovarian carcinoma cell line and the PAC-resistant 2008/P200A cell line (grown in 200 ng/mL of PAC) were kindly provided by Dr. John Allen (Centenary Institute, Sydney, Australia). Cells were grown in Dulbecco's modified Eagle's medium (DMEM; Life Technologies) with 10% (v/v) fetal calf serum (Sigma-Aldrich, St. Louis, Mo.) and supplemented with the following additions from Life Technologies: 1% (v/v) sodium pyruvate, 1% (v/v) non-essential amino acids, 100 U/mL penicillin, 100 μg/mL streptomycin, 2 mM L-glutamine and 0.28 μg/mL fungizone. The cells were then incubated at 37° C. in a humidified atmosphere of 5% CO2 and 95% air.\nThe effect of anti-cancer agents on cellular proliferation was examined using the MTT [3-(4,5-dimethylthiazol-2-yl)-2,5-diphenyl tetrazolium] method. In this assay, 3×10^3 cells/well were seeded in 96-well plates in 100 μL of media. The next day, serially diluted drugs of interest were added. […] The cells were incubated at 37° C. in a humidified atmosphere containing 5% CO2 and 95% air for 72 h. After this incubation, 10 μL of MIT (5 mg/mL) was added to each well and the incubation continued at 37° C. for 2 h. After solubilization of the cells with 100 μL of 10% SDS-50% isobutanol in 10 mM HCl, the plates were read at 570 nm using a scanning multi-well spectrophotometer (Victor™ Multilabel Counter plate reader; Perkin Elmer, Australia). Results were analyzed to calculate the concentration of chelator or complex necessary to reduce the absorbance to 50% (IC50) of the control."}, "2008/P200A cells": {"tested_on": "2008/P200A cells", "experiment": "Uptake of 14C-Dp44mT, 2008/P200A cells", "assay_type": "cell-based", "conditions": "2008/P200 cells, NH4Cl, MA or CLQ pre-incubation", "procedure": "(§2) For the uptake assay, each 35 mm culture dish containing 5×10^5 cells was incubated with ^14C-doxorubicin, ^3H-vinblastine or ^14C-Dp44mT (all at 1 μCi) for 30 min/37° C. Cells were then washed on ice three times with ice-cold PBS and collected for analysis. Drug uptake was calculated as the number of drug molecules/cell. […] For studies using lysosomotropic agents, cells were pre-incubated with NH4Cl (5 mM), CLQ (100 μM) or MA (100 μM) for 30 min/37° C. prior to ^14C-Dp44mT uptake. […] For efflux assays, the same labeling procedure was conducted as in the uptake assay. […] After this procedure, the overlying media was removed using a Pasteur pipette and then placed in a counting vial. The cells were removed from the plate in 1 mL of PBS and then dispensed into a separate counting vial. The radiolabeled-drug efflux was calculated as a percentage of the total drug uptake by the cells found at zero time."}, "[2]": {"tested_on": "Pgp-expressing KBV1 cells", "conditions": "previously reported (ref. 5); cited from earlier work"}, "[3]": {"tested_on": "non-Pgp expressing KB31 cells", "experiment": "Uptake of radio-labeled drug, KB31 cells", "assay_type": "cell-based, Human", "procedure": "as §2"}, "KBV1 cells": {"tested_on": "KBV1 cells", "experiment": "Lysosomal integrity, acridine orange flow cytometry, KBV1 cells", "assay_type": "cell-based, Human", "procedure": "Lysotracker® red (Life Technologies) and acridine orange (Sigma-Aldrich) are dyes showing high specificity for lysosomes and were used to determine lysosomal membrane permeability (LMP). The Lysotracker® red was visually assessed by fluorescence microscopy utilizing a Zeiss Axio Observer.Z1 Fluorescence Microscope equipped with an AxioCam camera (Zeiss, Oberkochen, Germany) and acridine orange was quantified by flow cytometry (see below).\nBriefly, cells were incubated with Lysotracker® red (50 nM) for 15 min/37° C. or acridine orange (20 nM) for 15 min/37° C., washed on ice 3 times with ice-cold PBS and then incubated with Cu[Dp44mT] (25 μM) for 30 min/37° C. or Dp44mT alone (25 μM) for 30 min or 24 h/37° C.\nas §1"}, "[4]": {"tested_on": "Pgp-expressing KBV1 cells", "experiment": "MTT proliferation assay, KBV1 cells", "assay_type": "cell-based, Human", "conditions": "72 h"}}, "data": [{"compound": "CN(C)C(=S)NN=C(c1ccccn1)c1ccccn1", "note": "[Dp44mT, di-2-pyridylketone 4,4-dimethyl-3-thiosemicarbazone]", "values": [{"measurement": "increased accumulation of Rh123", "setting": "Pgp", "value": "up to two fold"}, {"measurement": "change of cytotoxicity in presence of Pgp inhibitors Val or Ela", "setting": "[1]; 2008/P200A cells, Val 1 μM, Ela 0.1 μM", "value": "significantly (p<0.001) decreased sensitivity"}, {"measurement": "sensitivity of 2008/P200A cells compared to 2008 cells", "setting": "[1]; 72 h", "value": "significantly (p<0.001) increased sensitivity"}, {"measurement": "accumulation after pre-treatment with lysosomotropic agents", "setting": "2008/P200A cells", "value": "significantly (p<0.001) decreased"}, {"measurement": "cytotoxicity to KBV1 cells relative to KB31 cells", "setting": "[2]", "value": "increased cytotoxicity"}, {"measurement": "accumulation after pre-treatment with lysosomotropic agents", "setting": "[3]; NH4Cl, MA or CLQ pre-incubation", "value": "did not significantly affect"}, {"measurement": "effect of Pgp inhibitors Val and Ela on uptake", "setting": "[3]; Val 1 μM or Ela 0.1 μM pre-incubation, versus control", "value": "did not significantly alter radiolabel uptake"}, {"measurement": "lysosomal integrity (acridine orange)", "setting": "KBV1 cells; 30 min incubation", "value": "did not compromise lysosomal integrity"}, {"measurement": "lysosomal integrity (acridine orange)", "setting": "KBV1 cells; KBV1 cells, 25 μM, 24 h", "value": "decreased lysosomal integrity"}, {"measurement": "lysosomal damage in presence of Val", "setting": "KBV1 cells; KBV1 cells, 24 h, with Pgp inhibitor Val", "value": "significantly (p<0.01) reduced lysosomal damage"}, {"measurement": "more cytotoxic in drug-resistant KBV1 cells compared to KB31 cells", "setting": "[4]", "value": 31, "unit": "fold"}, {"measurement": "change of cytotoxicity in presence of Pgp inhibitors Val or Ela", "setting": "[4]; KBV1 cells, Val 1 μM, Ela 0.1 μM", "value": "clear decrease in the cytotoxicity"}]}]}
